This note sets out measurements from ChEMBL document CHEMBL4308894, “Synthesis and evaluation of biological activity for dual-acting antibiotics on the basis of azithromycin and glycopeptides” (Bioorg Med Chem Lett, 2019).

The term MIC denotes the lowest concentration that inhibits growth of the organism. The term ED50 denotes the midpoint of the dose-response relation. High values mean weaker potency, low ones greater potency. A word on the half-life: it is the time in which the quantity being followed falls by half. Read a low half-life as fast loss.

The structures appear in SMILES notation. In brackets after ≈: the same amount, converted by molar mass. Activity calls are given as the source filed them. No cut-off for these calls is given here.

Data set [1] has as its system Enterococcus faecium. Description: Antibacterial activity against Enterococcus faecium isolate 569 by micro dilution method. The data set is classed as functional.
The subject of data set [2] is Staphylococcus aureus. Description: Antibacterial activity against Staphylococcus aureus isolate 3797 by micro dilution method. The data set is classed as functional.
Data set [3] deals with Staphylococcus aureus. Description: Antibacterial activity against Staphylococcus aureus isolate 3798 by micro dilution method. The data set is classed as functional.
In data set [4] the test system is Klebsiella pneumoniae. Description: Antibacterial activity against Klebsiella pneumoniae ATCC 13883 by micro dilution method. The data set is classed as functional.
For data set [5], the system named is Streptococcus pneumoniae. Description: Antibacterial activity against Streptococcus pneumoniae ATCC 49619 by micro dilution method. The data set is classed as functional.
Data set [6] deals with Staphylococcus aureus. As to the kind of experiment: Antibacterial activity against Staphylococcus aureus isolate 10 by micro dilution method. The data set is classed as functional.
In data set [7] the test system is Enterococcus gallinarum. As to the kind of experiment: Antibacterial activity against Streptococcus gallinarum ATCC 35038 by micro dilution method. The data set is classed as functional.
For data set [8], the system named is Staphylococcus epidermidis. Description: Antibacterial activity against Staphylococcus epidermidis isolate 533 by micro dilution method. The data set is classed as functional.
The subject of data set [9] is Escherichia coli. As to the kind of experiment: Antibacterial activity against Escherichia coli ATCC 25922 by micro dilution method. The data set is classed as functional.
Data set [10] concerns Enterococcus faecium. As to the kind of experiment: Antibacterial activity against Enterococcus faecium isolate 568 by micro dilution method. The data set is classed as functional.
In data set [11] the test system is Enterococcus faecalis. As to the kind of experiment: Antibacterial activity against Enterococcus faecalis isolate 560 by micro dilution method. The data set is classed as functional.
In data set [12] the test system is Staphylococcus aureus. Description: Antibacterial activity against Staphylococcus aureus ATCC 25923 by micro dilution method. The data set is classed as functional.
Data set [13] concerns Staphylococcus aureus. As to the kind of experiment: Antibacterial activity against Staphylococcus aureus isolate 1025 by micro dilution method. The data set is classed as functional.
Data set [14] relates to Escherichia coli. Description: Induction of translation arrest in tolC-deficient Escherichia coli harboring pRFPCER-TrpL2A assessed as increase in pRFPCER-TrpL2A reporter activity at 10 mg/ml after overnight incubation by dual fluorescent-reporter gene assay. The data set is classed as functional, organism-based. On the technique in general: A reporter such as luciferase makes a cellular process visible.

For data set [15], the system named is Salmonella typhimurium. Description: Antibacterial activity against Salmonella choleraesuis ATCC 14028 by micro dilution method. The conditions noted are these: Salmonella enterica. The data set is classed as functional, Salmonella enterica subsp. enterica serovar Typhimurium.
Data set [16] deals with Streptococcus agalactiae. As to the kind of experiment: Antibacterial activity against Streptococcus agalactiae isolate 52 by micro dilution method. The data set is classed as functional.
In data set [17] the test system is Staphylococcus aureus. Description: Antibacterial activity against Staphylococcus aureus isolate 10 infected in C57BL/6 mouse assessed as survival rate at 7.5 mg/kg, iv measured for 10 days (reference value: 0%). The data set is classed as functional. To be noted: isolate 10, iv, 240 h.
Data set [18] concerns Staphylococcus aureus. Description: Antibacterial activity against Staphylococcus aureus isolate 10 infected in C57BL/6 mouse assessed as survival rate at 4.5 mg/kg, iv measured for 10 days (reference value: 0%). The data set is classed as functional. The conditions noted are these: isolate 10, iv, 240 h.
For data set [19], the system named is Staphylococcus aureus. Description: Antibacterial activity against Staphylococcus aureus isolate 10 infected in C57BL/6 mouse assessed as survival rate at 2.5 mg/kg, iv measured for 10 days (reference value: 0%). To be noted: isolate 10, iv, 240 h. The data set is classed as functional.
Data set [20] deals with Staphylococcus aureus. As to the kind of experiment: Antibacterial activity against Staphylococcus aureus isolate 10 infected in C57BL/6 mouse assessed as survival rate at 3.5 mg/kg, iv measured for 10 days (reference value: 0%). The data set is classed as functional. The conditions noted are these: isolate 10, iv, 240 h.
Data set [21] deals with Staphylococcus aureus. Description: Antibacterial activity against Staphylococcus aureus isolate 10 infected in iv dosed C57BL/6 mouse measured for 10 days. The data set is classed as functional. To be noted: isolate 10, iv, 240 h.
Data set [22] deals with Staphylococcus aureus. Description: Antibacterial activity against Staphylococcus aureus isolate 10 infected in C57BL/6 mouse assessed as survival rate at 5.5 mg/kg, iv measured for 10 days (reference value: 0%). The data set is classed as functional. To be noted: isolate 10, iv, 240 h.
In data set [23] the test system is Staphylococcus aureus. Description: Antibacterial activity against Staphylococcus aureus isolate 10 infected in C57BL/6 mouse assessed as survival rate at 6.5 mg/kg, iv measured for 10 days (reference value: 0%). The data set is classed as functional. The conditions noted are these: isolate 10, iv, 240 h.
Data set [24] in a line: Half life in human serum. The data set is classed as ADME, cell-free.

Consider `CC[C@H]1OC(=O)[C@H](C)[C@@H](O[C@H]2C[C@@](C)(OC)[C@@H](OC(=O)NCCNC(=O)[C@H]3NC(=O)[C@H]4NC(=O)[C@H](NC(=O)[C@@H]5NC(=O)[C@H](CC(N)=O)NC(=O)[C@H](NC(=O)[C@@H](CC(C)C)NC)[C@H](O)c6ccc(c(Cl)c6)Oc6cc5cc(c6O[C@@H]5O[C@H](CO)[C@@H](O)[C@H](O)[C@H]5O[C@H]5C[C@](C)(N)[C@H](O)[C@H](C)O5)Oc5ccc(cc5Cl)[C@H]4O)c4ccc(O)c(c4)-c4c(O)cc(O)cc43)[C@H](C)O2)[C@H](C)[C@@H](O[C@@H]2O[C@H](C)C[C@H](N(C)C)[C@H]2O)[C@](C)(O)C[C@@H](C)CN(C)[C@H](C)[C@H]2OC(=O)O[C@]21C`, for which the minimum inhibitory concentration (MIC) in data set [1] was over 32 µg/mL; in data set [2] it was 4 µg/mL (≈ 1.74 µM); in [3], over 32 µg/mL; in [4], over 32 µg/mL; in data set [5], 1 µg/mL (≈ 0.436 µM); in data set [6], 1 µg/mL (≈ 0.436 µM). Further, the minimum inhibitory concentration (MIC) in [7] is 4 µg/mL (≈ 1.74 µM); in data set [8] it was 1 µg/mL (≈ 0.436 µM); in data set [9], over 32 µg/mL; in data set [10], 1 µg/mL (≈ 0.436 µM); in data set [11] it was 32 µg/mL (≈ 14 µM); in data set [12] it was 1 µg/mL (≈ 0.436 µM). The MIC in data set [13] is over 32 µg/mL; in data set [15], over 32 µg/mL; in data set [16], 32 µg/mL (≈ 14 µM). Further, the outcome in data set [14] was Active.

As to `CC[C@H]1OC(=O)[C@H](C)[C@@H](O[C@H]2C[C@@](C)(OC)[C@@H](OC(=O)NCCNC(=O)[C@H]3NC(=O)[C@H]4NC(=O)[C@H](NC(=O)[C@@H]5NC(=O)[C@H](CC(N)=O)NC(=O)[C@H](NC(=O)[C@@H](CC(C)C)NC)[C@H](O)c6ccc(c(Cl)c6)Oc6cc5cc(c6O[C@@H]5O[C@H](CO)[C@@H](O)[C@H](O)[C@H]5O[C@H]5C[C@](C)(N)[C@H](O)[C@H](C)O5)Oc5ccc(cc5Cl)[C@H]4O[C@H]4C[C@](C)(N)[C@@H](O)[C@H](C)O4)c4ccc(O)c(c4)-c4c(O)cc(O)cc43)[C@H](C)O2)[C@H](C)[C@@H](O[C@@H]2O[C@H](C)C[C@H](N(C)C)[C@H]2O)[C@](C)(O)C[C@@H](C)CN(C)[C@H](C)[C@H]2OC(=O)O[C@]21C`, the minimal inhibitory concentration (MIC) in data set [1] was 8 µg/mL (≈ 3.28 µM); in data set [2] it was 4 µg/mL (≈ 1.64 µM); in [3], 8 µg/mL (≈ 3.28 µM); in data set [4], over 32 µg/mL; in data set [5], 1 µg/mL (≈ 0.411 µM); in data set [6], 0.06 µg/mL (≈ 0.0246 µM). The minimum inhibitory concentration (MIC) in [7] is 4 µg/mL (≈ 1.64 µM); in [8], 2 µg/mL (≈ 0.821 µM); in [9], over 32 µg/mL; in [10], 1 µg/mL (≈ 0.411 µM); in [11] it was 16 µg/mL (≈ 6.57 µM); in [12], 1 µg/mL (≈ 0.411 µM). Also, the results for the MIC in [13], in [15] and in data set [16] were 8 µg/mL (≈ 3.28 µM), over 32 µg/mL and 8 µg/mL (≈ 3.28 µM), respectively. Moreover, the survival at 7.5 mg/kg in data set [17] amounted to 80%. Besides, the survival at 4.5 mg/kg in data set [18] is 40%. Moreover, the survival at 2.5 mg/kg in data set [19] was determined as 30%. Also, in [20], the survival at 3.5 mg/kg was determined as 20%. The compound further came in with an ED50 in data set [21] of 4.7 mg/kg. Besides, the survival at 5.5 mg/kg in data set [22] turned out to be 70%. Moreover, in data set [23], the survival at 6.5 mg/kg was determined as 70%. Further, the result in data set [14] was Active.

In the case of `CC[C@H]1OC(=O)[C@H](C)[C@@H](O[C@H]2C[C@@](C)(OC)[C@@H](O)[C@H](C)O2)[C@H](C)[C@@H](O[C@@H]2O[C@H](C)C[C@H](N(C)C)[C@H]2O)[C@](C)(O)C[C@@H](C)CN(C)[C@H](C)[C@@H](O)[C@]1(C)O` [AZITHROMYCIN], the minimal inhibitory concentration (MIC) in data set [1] is 8 µg/mL (≈ 10.7 µM); in [2], over 32 µg/mL; in data set [3], over 32 µg/mL; in data set [4], 16 µg/mL (≈ 21.4 µM); in data set [5] it was 8 µg/mL (≈ 10.7 µM); in data set [6] it was 1 µg/mL (≈ 1.34 µM). Moreover, the minimal inhibitory concentration (MIC) in data set [7] was 4 µg/mL (≈ 5.34 µM); in data set [8] it was 2 µg/mL (≈ 2.67 µM); in data set [9], 8 µg/mL (≈ 10.7 µM); in [10], 8 µg/mL (≈ 10.7 µM); in [11], over 32 µg/mL; in data set [12], 1 µg/mL (≈ 1.34 µM). Also, the minimum inhibitory concentration (MIC) in data set [13] was 16 µg/mL (≈ 21.4 µM); in data set [15], 16 µg/mL (≈ 21.4 µM); in [16], over 32 µg/mL. Also, the outcome in data set [14] was Active. In addition, the half-life in data set [24] is 68 h.
